Test system: CRE-driven luciferase
Assay: CRE-luciferase reporter mice, in vivo brain luminescence
Conditions: 4 hours after IP 1.68 mg rolipram and 0.84 mg forskolin given together
Excerpt: Transgenic mice expressing firefly luciferase under the control of a cyclic AMP response element (CRE) can be used. Under conditions of elevated cyclic AMP (cAMP) or other mechanisms that activate the transcription factor CRE Binding Protein 1 (CREB), cells in these mice can express luciferase, which can be measured in whole animal luminescence instrumentation (IVIS imager) after IV dosage with a luciferin formulated for animal use. Mice can be validated to express the transgene under proper response element control by dosing these mice with forskolin and rolipram, two drugs that stimulate neuronal cAMP production and inhibit its degradation (respectively). […]
Under conditions of elevated cyclic AMP (cAMP) or other mechanisms that activate the transcription factor CRE Binding Protein 1 (CREB), cells in these mice express luciferase, which are measured in whole animal luminescence instrumentation (IVIS imager) after IV dosage with a luciferin formulated for animal use. […]
Luminescence was measured in anesthetized mice on a Xenogen IVIS instrument with a 1 min exposure. […] For the test peptides for comparison, identical regions of interest encompassing the entire brain were draw and quantified using LivingImage software (version 4.0, PerkinElmer, FIG. 16). […]
Transgenic Mice were first dosed with luciferin and luminescence was measured (“unstimulated”).

SMILES: COc1ccc(C2CNC(=O)C2)cc1OC1CCCC1 (stereo not shown) [rolipram]
- CRE-Luc brain luminescence, positive control: high levels of luminescence

— patent US20250326866A1, “TRANSFERRIN RECEPTOR TARGETING PEPTIDE OLIGONUCLEOTIDE COMPLEXES AND METHODS OF USE THEREOF” (Blaze Bioscience, Inc., priority 2021, published 2025)
